Measured values as given in patent US6326378A, “Use of thiadiazolo[4,3-a]pyridine derivatives” (Roche Diagnostics GmbH, priority 1998, dated 2001).
Values after ≈ are worked out from the molar mass of the structure shown.

Legend:
[1] = cited from earlier work
[2] = tested on: guinea pigs; experiment: Toxicity / tolerability in guinea pigs; assay type: in vivo, guinea pig; settings: p.o. and i.p.
From the text: (§1) The behaviour of the dogs was normal.

[3] = tested on: Lymphocytes; experiment: Lymphocytes, ConA, thymidine incorporation; assay type: cell-based; settings: Lymphocyte; stimulus ConA
From the text: (§2) The compound from Example 2b inhibits the activation of various types of leucocytes under different stimuli.

[4] = tested on: Phagocytes (PMNs); experiment: Phagocytes (PMNs), zymosan, chemiluminescence; assay type: cell-based; settings: stimulus zymosan
From the text: as §2

[5] = target: PDE III; experiment: PDE III inhibition, isolated human enzyme preparations; assay type: biochemical; settings: isolated human enzyme preparation
Method: (§3) The IC50 values of the compound from Example 2b were determined to be 2×10^-5 mol/l (PDE IV) and 8×10^-5 mol/l (PDE III) on isolated human enzyme preparations.

[6] = tested on: mice; experiment: Toxicity / tolerability in mice; assay type: in vivo, mouse; settings: p.o. and i.p.
From the text: as §1

[7] = tested on: conscious dogs (beagles); experiment: Effect on heart rate and arterial blood pressure of conscious dogs; assay type: in vivo, dog; settings: for DBP / MAP / SBP / HR: 24 mg/kg oral
Method: as §1
Effect on heart rate and on arterial blood pressure
of conscious dogs after oral administration of 24 mg/kg of the compound of […]

[8] = tested on: Lymphocytes; experiment: Lymphocytes, mixed lymphocytes reaction, thymidine incorporation; assay type: cell-based; settings: Lymphocyte; stimulus mixed lymphocytes reaction
From the text: as §2

[9] = tested on: rats; experiment: Toxicity / tolerability in rats; assay type: in vivo, rat
From the text: as §1

[10] = tested on: Basophilic granulocytes; experiment: Basophilic granulocytes, anti-IgE antibody, proteinase release; assay type: cell-based; settings: stimulus anti-IgE antibody
From the text: as §2

[11] = tested on: T Lymphoblasts; experiment: T Lymphoblasts, thymidine incorporation; assay type: cell-based; settings: no stimulus
From the text: as §2

[12] = target: PDE IV; experiment: PDE IV inhibition, isolated human enzyme preparations; assay type: biochemical; settings: isolated human enzyme preparation
Method: as §3

[13] = tested on: Peripheral leucocytes; experiment: Peripheral leucocytes, LPS, secretion of TNFα; assay type: cell-based; settings: Leucocyte; stimulus LPS
From the text: as §2

[14] = tested on: dogs; experiment: Toxicity / tolerability in dogs; assay type: in vivo, dog
From the text: as §1

[15] = conscious beagles, 24 mg/kg, up to 6 h after administration
[16] = conscious beagles, 24 mg/kg, observation period up to 6 h

SMILES: Cn1c(=O)c2[nH]cnc2n(C)c1=O [theophylline]
- side effects ([1]; at slightly increased doses): nausea, giddiness, tachycardia and tremor
- therapeutic breadth ([1]; employed for therapy): small therapeutic breadth

SMILES: c1ccn2c(=Nc3ccncc3)snc2c1 [Example 2b, 3-(4-Pyridinylimino)-3H-[1,2,4]thiadiazolo[4,3-a]pyridine]
- tolerability [2]: well tolerated
- IC50 [3]: 2.8 µg/mL (≈ 12.3 µM)
- IC50 [4]: 27 µg/mL (≈ 118 µM)
- IC50 [5]: 80 µM
- tolerability [6]: well tolerated
- arterial blood pressure [7, 15]: remained constant
- heart rate [7, 15]: remained constant
- DBP ([7]; edible oil + 2% DMSO, 30 min, preliminary value 66): 63 mmHg
- MAP ([7]; edible oil + 2% DMSO, 30 min, preliminary value 111): 113 mmHg
- SBP ([7]; edible oil + 2% DMSO, 30 min, preliminary value 171): 181 mmHg
- DBP ([7]; edible oil + 2% DMSO, 60 min, preliminary value 66): 57 mmHg
- HR ([7]; edible oil + 2% DMSO, 60 min, preliminary value 79): 82 beats/min
- MAP ([7]; edible oil + 2% DMSO, 60 min, preliminary value 111): 109 mmHg
- SBP ([7]; edible oil + 2% DMSO, 60 min, preliminary value 171): 178 mmHg
- DBP ([7]; edible oil + 2% DMSO, 90 min, preliminary value 66): 58 mmHg
- HR ([7]; edible oil + 2% DMSO, 90 min, preliminary value 79): 86 beats/min
- MAP ([7]; edible oil + 2% DMSO, 90 min, preliminary value 111): 107 mmHg
- SBP ([7]; edible oil + 2% DMSO, 90 min, preliminary value 171): 173 mmHg
- DBP ([7]; edible oil + 2% DMSO, 120 min, preliminary value 66): 60 mmHg
- HR ([7]; edible oil + 2% DMSO, 120 min, preliminary value 79): 82 beats/min
- MAP ([7]; edible oil + 2% DMSO, 120 min, preliminary value 111): 109 mmHg
- SBP ([7]; edible oil + 2% DMSO, 120 min, preliminary value 171): 175 mmHg
- DBP ([7]; edible oil + 2% DMSO, 150 min, preliminary value 66): 63 mmHg
- HR ([7]; edible oil + 2% DMSO, 150 min, preliminary value 79): 82 beats/min
- MAP ([7]; edible oil + 2% DMSO, 150 min, preliminary value 111): 113 mmHg
- SBP ([7]; edible oil + 2% DMSO, 150 min, preliminary value 171): 179 mmHg
- DBP ([7]; edible oil + 2% DMSO, 180 min, preliminary value 66): 66 mmHg
- HR ([7]; edible oil + 2% DMSO, 180 min, preliminary value 79): 87 beats/min
- MAP ([7]; edible oil + 2% DMSO, 180 min, preliminary value 111): 114 mmHg
- SBP ([7]; edible oil + 2% DMSO, 180 min, preliminary value 171): 179 mmHg
- DBP ([7]; edible oil + 2% DMSO, 210 min, preliminary value 66): 68 mmHg
- HR ([7]; edible oil + 2% DMSO, 210 min, preliminary value 79): 86 beats/min
- MAP ([7]; edible oil + 2% DMSO, 210 min, preliminary value 111): 114 mmHg
- SBP ([7]; edible oil + 2% DMSO, 210 min, preliminary value 171): 174 mmHg
- DBP ([7]; edible oil + 2% DMSO, 240 min, preliminary value 66): 64 mmHg
- HR ([7]; edible oil + 2% DMSO, 240 min, preliminary value 79): 93 beats/min
- MAP ([7]; edible oil + 2% DMSO, 240 min, preliminary value 111): 109 mmHg
- SBP ([7]; edible oil + 2% DMSO, 240 min, preliminary value 171): 169 mmHg
- DBP ([7]; edible oil + 2% DMSO, 300 min, preliminary value 66): 65 mmHg
- HR ([7]; edible oil + 2% DMSO, 300 min, preliminary value 79): 92 beats/min
- MAP ([7]; edible oil + 2% DMSO, 300 min, preliminary value 111): 110 mmHg
- SBP ([7]; edible oil + 2% DMSO, 300 min, preliminary value 171): 169 mmHg
- DBP ([7]; edible oil + 2% DMSO, 360 min, preliminary value 66): 70 mmHg
- HR ([7]; edible oil + 2% DMSO, 360 min, preliminary value 79): 91 beats/min
- MAP ([7]; edible oil + 2% DMSO, 360 min, preliminary value 111): 115 mmHg
- SBP ([7]; edible oil + 2% DMSO, 360 min, preliminary value 171): 174 mmHg
- HR ([7]; edible oil + 2% DMSO, 1 ml/kg, 30 min, preliminary value 79, average n=5): 117 beats/min
- DBP ([7]; methyl cellulose 1% + 2% DMSO, 30 min, preliminary value 70): 65 mmHg
- MAP ([7]; methyl cellulose 1% + 2% DMSO, 30 min, preliminary value 114): 114 mmHg
- SBP ([7]; methyl cellulose 1% + 2% DMSO, 30 min, preliminary value 172): 179 mmHg
- DBP ([7]; methyl cellulose 1% + 2% DMSO, 60 min, preliminary value 70): 66 mmHg
- HR ([7]; methyl cellulose 1% + 2% DMSO, 60 min, preliminary value 83): 79 beats/min
- MAP ([7]; methyl cellulose 1% + 2% DMSO, 60 min, preliminary value 114): 114 mmHg
- SBP ([7]; methyl cellulose 1% + 2% DMSO, 60 min, preliminary value 172): 178 mmHg
- DBP ([7]; methyl cellulose 1% + 2% DMSO, 90 min, preliminary value 70): 63 mmHg
- HR ([7]; methyl cellulose 1% + 2% DMSO, 90 min, preliminary value 83): 83 beats/min
- MAP ([7]; methyl cellulose 1% + 2% DMSO, 90 min, preliminary value 114): 110 mmHg
- SBP ([7]; methyl cellulose 1% + 2% DMSO, 90 min, preliminary value 172): 172 mmHg
- DBP ([7]; methyl cellulose 1% + 2% DMSO, 120 min, preliminary value 70): 64 mmHg
- HR ([7]; methyl cellulose 1% + 2% DMSO, 120 min, preliminary value 83): 80 beats/min
- MAP ([7]; methyl cellulose 1% + 2% DMSO, 120 min, preliminary value 114): 111 mmHg
- SBP ([7]; methyl cellulose 1% + 2% DMSO, 120 min, preliminary value 172): 173 mmHg
- DBP ([7]; methyl cellulose 1% + 2% DMSO, 150 min, preliminary value 70): 64 mmHg
- HR ([7]; methyl cellulose 1% + 2% DMSO, 150 min, preliminary value 83): 81 beats/min
- MAP ([7]; methyl cellulose 1% + 2% DMSO, 150 min, preliminary value 114): 112 mmHg
- SBP ([7]; methyl cellulose 1% + 2% DMSO, 150 min, preliminary value 172): 175 mmHg
- DBP ([7]; methyl cellulose 1% + 2% DMSO, 180 min, preliminary value 70): 65 mmHg
- HR ([7]; methyl cellulose 1% + 2% DMSO, 180 min, preliminary value 83): 76 beats/min
- MAP ([7]; methyl cellulose 1% + 2% DMSO, 180 min, preliminary value 114): 114 mmHg
- SBP ([7]; methyl cellulose 1% + 2% DMSO, 180 min, preliminary value 172): 178 mmHg
- DBP ([7]; methyl cellulose 1% + 2% DMSO, 210 min, preliminary value 70): 63 mmHg
- HR ([7]; methyl cellulose 1% + 2% DMSO, 210 min, preliminary value 83): 84 beats/min
- MAP ([7]; methyl cellulose 1% + 2% DMSO, 210 min, preliminary value 114): 109 mmHg
- SBP ([7]; methyl cellulose 1% + 2% DMSO, 210 min, preliminary value 172): 169 mmHg
- DBP ([7]; methyl cellulose 1% + 2% DMSO, 240 min, preliminary value 70): 62 mmHg
- HR ([7]; methyl cellulose 1% + 2% DMSO, 240 min, preliminary value 83): 74 beats/min
- MAP ([7]; methyl cellulose 1% + 2% DMSO, 240 min, preliminary value 114): 108 mmHg
- SBP ([7]; methyl cellulose 1% + 2% DMSO, 240 min, preliminary value 172): 167 mmHg
- DBP ([7]; methyl cellulose 1% + 2% DMSO, 300 min, preliminary value 70): 62 mmHg
- HR ([7]; methyl cellulose 1% + 2% DMSO, 300 min, preliminary value 83): 77 beats/min
- MAP ([7]; methyl cellulose 1% + 2% DMSO, 300 min, preliminary value 114): 108 mmHg
- SBP ([7]; methyl cellulose 1% + 2% DMSO, 300 min, preliminary value 172): 169 mmHg
- DBP ([7]; methyl cellulose 1% + 2% DMSO, 360 min, preliminary value 70): 65 mmHg
- HR ([7]; methyl cellulose 1% + 2% DMSO, 360 min, preliminary value 83): 75 beats/min
- MAP ([7]; methyl cellulose 1% + 2% DMSO, 360 min, preliminary value 114): 110 mmHg
- SBP ([7]; methyl cellulose 1% + 2% DMSO, 360 min, preliminary value 172): 170 mmHg
- HR ([7]; methyl cellulose 1% + 2% DMSO, 1 ml/kg, 30 min, preliminary value 83, average n=5): 85 beats/min
- IC50 [8]: 7.6 µg/mL (≈ 33.3 µM)
- side effects (behaviour, body weight, histology, haematological and clinicochemical parameters) ([9]; after 2 weeks, 40 mg/kg daily): not possible to determine any side effects
- tolerability ([9]; p.o. and i.p.): well tolerated
- IC50 [10]: 10 µg/mL (≈ 43.8 µM)
- IC50 [11]: 6.4 µg/mL (≈ 28 µM)
- IC50 [12]: 20 µM
- IC50 [13]: < 3 µg/mL
- behaviour of the dogs ([14]; conscious beagles, 24 mg/kg): normal
- emetic action ([14]; conscious beagles, 24 mg/kg): not detectable
- blood glucose [14, 16]: remained unchanged
- triglycerides [14, 16]: remained unchanged
- tolerability ([14]; dogs, p.o.): well tolerated
- GPT ([14]; sign of liver damage, conscious beagles, 24 mg/kg, observation period up to 6 h): remained unchanged
